Measured values from PubChem BioAssay AID2060891 (Molecular Pharmacology Branch, DTP, NCI, 2025).

System: K98450-129-R-PDC complex spheroid growth, percent test/control
Assay: Anticancer human tumor K98450-129-R-PDC patient-derived colon adenocarcinoma cell line growth inhibition [RAS]
Settings: for IC50: curve of first compound; for viability, T/C: stronger effect = lower value
In short: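 Tumour cells grown as complex spheroids with HUVEC endothelial cells and mesenchymal stem cells, treated with RAS pathway inhibitor combinations. Each agent spans half-log steps from near clinical Cmax, or 10 microM where Cmax is unknown.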
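Note: spheroids exposed to agents for seven days before the viability readout.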
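Throughout, for viability, T/C: luminescence used as a proxy for viable cell amount.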

## CC1(O)CCCC1n1c(=O)c(C(F)F)cc2cnc(NC3CCN(S(C)(=O)=O)CC3)nc21 (configuration not stated) + C=CC(=O)N1CCN(c2nc(OCC3CCCN3C)nc3c(F)c(-c4nc(N)cc(C)c4C(F)(F)F)c(Cl)cc23)C(C)C1
Second compound 0.00316 µM
  IC50: 8350 nM
Second compound 0.01 µM
  IC50: 2760 nM
Second compound 0.0316 µM
  IC50: 696 nM
Second compound 0.1 µM
  IC50: 229 nM
Second compound 0.316 µM
  IC50: < 31.6 nM
Second compound 1 µM
  IC50: < 31.6 nM
Second compound 0.00316 µM, first compound 0.0316 µM
  viability, T/C: 97.1%
Second compound 0.00316 µM, first compound 0.1 µM
  viability, T/C: 90.5%
Second compound 0.00316 µM, first compound 0.316 µM
  viability, T/C: 80.8%
Second compound 0.00316 µM, first compound 1 µM
  viability, T/C: 71.1%
Second compound 0.00316 µM, first compound 3.16 µM
  viability, T/C: 56.2%
Second compound 0.00316 µM, first compound 10 µM
  viability, T/C: 49.1%
Second compound 0.01 µM, first compound 0.0316 µM
  viability, T/C: 86.1%
Second compound 0.01 µM, first compound 0.1 µM
  viability, T/C: 81.3%
Second compound 0.01 µM, first compound 0.316 µM
  viability, T/C: 71.2%
Second compound 0.01 µM, first compound 1 µM
  viability, T/C: 65.5%
Second compound 0.01 µM, first compound 3.16 µM
  viability, T/C: 45%
Second compound 0.01 µM, first compound 10 µM
  viability, T/C: 41.2%
Second compound 0.0316 µM, first compound 0.0316 µM
  viability, T/C: 74.9%
Second compound 0.0316 µM, first compound 0.1 µM
  viability, T/C: 70.2%
Second compound 0.0316 µM, first compound 0.316 µM
  viability, T/C: 57.9%
Second compound 0.0316 µM, first compound 1 µM
  viability, T/C: 47.5%
Second compound 0.0316 µM, first compound 3.16 µM
  viability, T/C: 34.4%
Second compound 0.0316 µM, first compound 10 µM
  viability, T/C: 32%
Second compound 0.1 µM, first compound 0.0316 µM
  viability, T/C: 55.9%
Second compound 0.1 µM, first compound 0.1 µM
  viability, T/C: 55.6%
Second compound 0.1 µM, first compound 0.316 µM
  viability, T/C: 48.2%
Second compound 0.1 µM, first compound 1 µM
  viability, T/C: 34%
Second compound 0.1 µM, first compound 3.16 µM
  viability, T/C: 26.9%
Second compound 0.1 µM, first compound 10 µM
  viability, T/C: 22%
Second compound 0.316 µM, first compound 0.0316 µM
  viability, T/C: 45.2%
Second compound 0.316 µM, first compound 0.1 µM
  viability, T/C: 42.1%
Second compound 0.316 µM, first compound 0.316 µM
  viability, T/C: 33%
Second compound 0.316 µM, first compound 1 µM
  viability, T/C: 27.6%
Second compound 0.316 µM, first compound 3.16 µM
  viability, T/C: 21.7%
Second compound 0.316 µM, first compound 10 µM
  viability, T/C: 18.9%
Second compound 1 µM, first compound 0.0316 µM
  viability, T/C: 31.7%
Second compound 1 µM, first compound 0.1 µM
  viability, T/C: 33.7%
Second compound 1 µM, first compound 0.316 µM
  viability, T/C: 26.6%
Second compound 1 µM, first compound 1 µM
  viability, T/C: 21%
Second compound 1 µM, first compound 3.16 µM
  viability, T/C: 19.4%
Second compound 1 µM, first compound 10 µM
  viability, T/C: 16.1%
